Where “and” joins values, the source holds several entries; their conditions need not be identical. Equal values may be shown once. Toxic doses and inconclusive results are not listed. Cut-off read from the data, not from the text of the source: active = T/C of 150% or more; inactive = T/C below 125%.
Test system: L1210 leukemia ip in BDF1 mice, survival T/C
Experiment: NCI In Vivo Anticancer Drug Screen. Data for tumor model L1210 Leukemia (intraperitoneal) in B6D2F1 (BDF1) mice
Conditions: endpoint: mean survival time, higher = longer survival
How it was run: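 Antitumor effect is assessed in tumor-bearing animals. Survival in the compound arm is compared with a vehicle-dosed control arm and expressed as their quotient.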

[1] = dose: 100.0 mg/kg/injection, schedule: Q04DX003 (ip), vehicle: saline
[2] = dose: 200.0 mg/kg/injection, schedule: Q04DX003 (ip), vehicle: saline
[3] = dose: 400.0 mg/kg/injection, schedule: Q04DX003 (ip), vehicle: saline
[4] = dose: 100.0 mg/kg/injection, schedule: Q01DX009 (ip), vehicle: saline with Tween-80
[5] = dose: 50.0 mg/kg/injection, schedule: Q01DX009 (ip), vehicle: saline
[6] = dose: 100.0 mg/kg/injection, schedule: Q01DX009 (ip), vehicle: saline
[7] = dose: 200.0 mg/kg/injection, schedule: Q01DX009 (ip), vehicle: saline
[8] = dose: 100.0 mg/kg/injection, schedule: Q01DX001 (ip), vehicle: Klucel (hydroxypropylcellulose) (HPC)
[9] = dose: 200.0 mg/kg/injection, schedule: Q01DX001 (ip), vehicle: Klucel (hydroxypropylcellulose) (HPC)
[10] = dose: 400.0 mg/kg/injection, schedule: Q01DX001 (ip), vehicle: Klucel (hydroxypropylcellulose) (HPC)
[11] = dose: 12.5 mg/kg/injection, schedule: Q01DX009 (ip), vehicle: saline
[12] = dose: 25.0 mg/kg/injection, schedule: Q01DX009 (ip), vehicle: saline
[13] = dose: 50.0 mg/kg/injection, schedule: Q04DX003 (ip), vehicle: saline
[14] = dose: 100.0 mg/kg/injection, schedule: Q01DX001 (ip), vehicle: carboxymethylcellulose (CMC)
[15] = dose: 200.0 mg/kg/injection, schedule: Q01DX001 (ip), vehicle: carboxymethylcellulose (CMC)
[16] = dose: 400.0 mg/kg/injection, schedule: Q01DX001 (ip), vehicle: carboxymethylcellulose (CMC)
[17] = dose: 100.0 mg/kg/injection, schedule: Q04DX003 (ip), vehicle: saline with Tween-80
[18] = dose: 200.0 mg/kg/injection, schedule: Q04DX003 (ip), vehicle: saline with Tween-80
[19] = dose: 400.0 mg/kg/injection, schedule: Q04DX003 (ip), vehicle: saline with Tween-80
[20] = dose: 200.0 mg/kg/injection, schedule: Q01DX009 (ip), vehicle: saline with Tween-80
[21] = dose: 25.0 mg/kg/injection, schedule: Q04DX003 (ip), vehicle: saline
[22] = dose: 100.0 mg/kg/injection, schedule: Q01DX001 (ip), vehicle: saline
[23] = dose: 200.0 mg/kg/injection, schedule: Q01DX001 (ip), vehicle: saline
[24] = dose: 400.0 mg/kg/injection, schedule: Q01DX009 (ip), vehicle: saline with Tween-80
[25] = dose: 50.0 mg/kg/injection, schedule: Q01DX001 (ip), vehicle: carboxymethylcellulose (CMC)

Measured: T/C

NNC(=O)c1cc2ccncc2c2sc3ccccc3c12
inactive: [1] 92 % of control | [2] 88 % of control | [3] 97 % of control

Nc1cnccc1Nc1ccc(-c2ccccc2)cc1
inactive: [4] 92 % of control

COC(=O)Cc1cc(=O)c2ccccc2[nH]1
inactive: [5] 94 % of control | [6] 103 % of control | [1] 96 % of control | [7] 93 % of control | [2] 96 % of control | [3] 91 % of control

Nc1ccc(Cl)cc1C(=O)O
inactive: [8] 90 % of control | [9] 101 % of control | [10] 90 % of control

O=C(C[n+]1ccc2ccccc2c1)c1ccccc1
inactive: [11] 98 % of control | [12] 104 % of control | [5] 101 % of control | [13] 97 % of control

O=C(Nc1ccc2c(c1)C(S)c1ccccc1-2)C(F)(F)F (stereo not drawn)
inactive: [14] 96 % of control | [15] 101 % of control | [16] 95 % of control

O=C1CSC(=S)N1c1ccccc1
inactive: [14] 95 % of control | [17] 96 % of control | [15] 97 % of control | [18] 93 % of control | [16] 93 % of control | [19] 90 % of control

CCOC(=O)CCC(C)Br (stereo not drawn)
inactive: dose: 50.0 mg/kg/injection, schedule: Q01DX009 (ip), vehicle: saline with Tween-80 97 % of control | [4] 101 % of control | [20] 108 % of control

C1CC[N+]2(CC1)CCC2
inactive: dose: 12.0 mg/kg/injection, schedule: Q04DX003 (ip), vehicle: saline 106 % of control | [11] 97 % of control | [12] 100 % of control | [21] 94 % of control | [5] 100 % of control | [13] 111 % of control | [22] 107 % of control | [23] 115 % of control

Cc1ccc(Nc2cc(N)nc(N)n2)cc1
inactive: dose: 25.0 mg/kg/injection, schedule: Q01DX Z (ip), vehicle: methylcellulose (MC) 100 % of control

Cc1ccc(S(=O)(=O)N/N=C/c2ccc(O)cc2)cc1
inactive: dose: 87.5 mg/kg/injection, schedule: Q04DX003 (ip), vehicle: Klucel (hydroxypropylcellulose) (HPC) 97 % of control | dose: 175.0 mg/kg/injection, schedule: Q04DX003 (ip), vehicle: Klucel (hydroxypropylcellulose) (HPC) 105 % of control | dose: 350.0 mg/kg/injection, schedule: Q04DX003 (ip), vehicle: Klucel (hydroxypropylcellulose) (HPC) 103 % of control

O=c1cc(O)ccn1CC(O)c1ccc(Cl)s1 (stereo not drawn)
inactive: [4] 89 % of control | [17] 100 % of control | [20] 88 % of control | [18] 98 % of control | [24] 94 % of control | [19] 99 % of control

O=C=Nc1ccc(C(=O)CCl)cc1
inactive: dose: 20.0 mg/kg/injection, schedule: Q01DX009 (ip), vehicle: saline with Tween-80 91 % of control | dose: 40.0 mg/kg/injection, schedule: Q01DX009 (ip), vehicle: saline with Tween-80 91 % of control | dose: 80.0 mg/kg/injection, schedule: Q01DX009 (ip), vehicle: saline with Tween-80 101 % of control | dose: 160.0 mg/kg/injection, schedule: Q01DX009 (ip), vehicle: saline with Tween-80 98 % of control

N#C/C(=C/c1ccc(Cl)cc1)C(=O)O
inactive: dose: 62.5 mg/kg/injection, schedule: Q01DX009 (ip), vehicle: Klucel (hydroxypropylcellulose) (HPC) 115 % of control | dose: 100.0 mg/kg/injection, schedule: Q04DX002 (ip), vehicle: Klucel (hydroxypropylcellulose) (HPC) 109 % of control | dose: 125.0 mg/kg/injection, schedule: Q01DX009 (ip), vehicle: Klucel (hydroxypropylcellulose) (HPC) 86 % of control | dose: 200.0 mg/kg/injection, schedule: Q04DX002 (ip), vehicle: Klucel (hydroxypropylcellulose) (HPC) 98 % of control | dose: 250.0 mg/kg/injection, schedule: Q01DX009 (ip), vehicle: Klucel (hydroxypropylcellulose) (HPC) 86 % of control

CCOC(=O)/C(C(=O)c1ccccc1)=C(\OC(=O)c1ccccc1)c1ccccc1
inactive: [25] 96 % of control | [14] 102 % of control | [15] 91 % of control

O=C(NC(=O)C(Cl)Cl)Nc1ccc2c(c1)-c1ccccc1C2
inactive: [8] 87 % of control | dose: 100.0 mg/kg/injection, schedule: Q01DX009 (ip), vehicle: Klucel (hydroxypropylcellulose) (HPC) 96 % of control | dose: 100.0 mg/kg/injection, schedule: Q04DX003 (ip), vehicle: Klucel (hydroxypropylcellulose) (HPC) 92 % of control | [9] 90 % of control | dose: 200.0 mg/kg/injection, schedule: Q01DX009 (ip), vehicle: Klucel (hydroxypropylcellulose) (HPC) 94 % of control | dose: 200.0 mg/kg/injection, schedule: Q04DX003 (ip), vehicle: Klucel (hydroxypropylcellulose) (HPC) 92 % of control | [10] 92 % of control | dose: 400.0 mg/kg/injection, schedule: Q01DX009 (ip), vehicle: Klucel (hydroxypropylcellulose) (HPC) 100 % of control | dose: 400.0 mg/kg/injection, schedule: Q04DX003 (ip), vehicle: Klucel (hydroxypropylcellulose) (HPC) 88 % of control

Nc1nc(N)c2[nH]c(CCNc3ccc(C(=O)O)cc3)nc2n1
inactive: dose: 6.25 mg/kg/injection, schedule: Q01DX001 (ip), vehicle: saline with Tween-80 96 % of control | dose: 12.5 mg/kg/injection, schedule: Q01DX001 (ip), vehicle: saline with Tween-80 92 % of control | dose: 25.0 mg/kg/injection, schedule: Q01DX001 (ip), vehicle: saline with Tween-80 94 % of control and 101 % of control | dose: 50.0 mg/kg/injection, schedule: Q01DX001 (ip), vehicle: saline with Tween-80 98 % of control | dose: 100.0 mg/kg/injection, schedule: Q01DX001 (ip), vehicle: saline with Tween-80 102 % of control

Nc1nc(N)c2nc3c(nc2n1)C(=O)N(c1ccc(C(=O)NC(CCC(=O)O)C(=O)O)cc1)C3 (stereo not drawn)
inactive: [6] 94 % of control | [7] 98 % of control | dose: 400.0 mg/kg/injection, schedule: Q01DX009 (ip), vehicle: saline 86 % of control

CCOC(=O)CN(c1ccccc1C(=O)OC)S(=O)(=O)c1ccc(C)cc1
inactive: [14] 112 % of control | [15] 114 % of control | [16] 107 % of control

c1ccc(N2N=NC3C4CCC(C4)C32)cc1 (stereo not drawn)
inactive: [4] 108 % of control | [20] 98 % of control | [24] 104 % of control

COc1ccccc1CN1CCCN(Cc2ccccc2OC)C1c1cccnc1
inactive: [25] 112 % of control | [14] 108 % of control | [15] 106 % of control | [16] 108 % of control

CCCCCC(C)NCCOC(=O)c1ccc([N+](=O)[O-])cc1 (stereo not drawn)
inactive: dose: 75.0 mg/kg/injection, schedule: Q01DX001 (ip), vehicle: other 103 % of control | dose: 150.0 mg/kg/injection, schedule: Q01DX001 (ip), vehicle: other 103 % of control | dose: 300.0 mg/kg/injection, schedule: Q01DX001 (ip), vehicle: other 106 % of control

COc1cc(OCc2ccccc2)c([N+](=O)[O-])cc1OC
inactive: [1] 116 % of control | [2] 124 % of control | [3] 112 % of control

CC(CCOC(=O)c1ccccc1)OC(=O)c1ccccc1 (stereo not drawn)
inactive: [22] 92 % of control | [23] 121 % of control | dose: 400.0 mg/kg/injection, schedule: Q01DX001 (ip), vehicle: saline 105 % of control

OCCOCCN1CCN(C(c2ccccc2)c2ccc(Cl)cc2)CC1 (stereo not drawn)
inactive: [11] 103 % of control | [12] 103 % of control | [21] 109 % of control | [5] 103 % of control | [13] 96 % of control | [6] 103 % of control | [1] 93 % of control | [2] 90 % of control

Source: PubChem BioAssay AID248 (DTP/NCI, 2004)
